Source: US7923445B2, “Methods for treatment of diseases related to activated lymphocytes” (Immune Control, Inc., priority 2006, dated 2011)

Tests used:
TNF-α = assay: LPS-mediated cytokine production model, serum TNF-α; format: in vivo, CD1:ICR mice; conditions: for TNFα inhibition, IV versus IP administration: pre-dose time course, 10 mg/kg; for TNFα inhibition in dose-response study: IP, up to a dose of 5 mg/kg, pre-dose 1 hr
Description: Bolus injection of lethal or sub-lethal doses of lipopolysaccharide (LPS; the major component of bacterial cell walls) results in a rapid and transient rise in serum cytokine levels (e.g. TNF-α) in mammals. This animal model was originally developed to mirror certain aspects of septic shock in humans; however, there is poor correlation between efficacy in LPS-rodent models and clinical efficacy. However, this model may be an effective first-line general inflammation model and could be useful in determining the anti-inflammatory potential of test compounds. A variety of clinically approved anti-inflammatory compounds, including glucocorticoids, NSAIDS and COX-2 inhibitors are extremely effective in this model. Compounds ICI-685 and ICI-735 were tested for their ability to inhibit LPS-stimulated TNF-α and IL-1β production.
Both ICI-685 and ICI-735 were formulated in water. For the time course study, both drugs were formulated at a concentration of 1 mg/ml and dosed 10 ml/kg to produce a dose of 10 mg/kg. For the dose-response study, drug was formulated at concentrations of 0.05, 0.2 and 0.5 mg/ml and dosed at a volume of 10 ml/kg to produce doses of 0.5, 2 and 5 mg/kg, respectively. Animals were dosed IV or IP.
CD1:ICR mice were obtained from Harlan (Indianapolis, Ind.) at 6 weeks of age. Animals were housed 5 per cage, kept on a 12 hr light dark cycle and fed food and water ad libitum. Animals were tested at 8-10 weeks of age.
Lipopolysaccharide (heat killed E. coli 0127:B5; Sigma Aldrich) was prepared in distilled water at a concentration of 0.025 mg/ml. LPS was dosed at a volume of 10 ml/kg (IP) to produce a final dose of 0.25 mg/kg (approximately 7.5 μg/mouse). Drugs were dosed prior to LPS administration as indicated elsewhere herein. Blood was collected by retro-orbital eye bleed 90 minutes after LPS administration. Serum was prepared from blood and TNF-α and IL-1β levels were measured by using the OPT-EIA mouse TNF-α and IL-1β ELISA kits (BD Biosciences) as per directions of the manufacturer.
The first study was designed to determine the optimal route of administration and the optimal pre-treatment time. Two pre-dose time course studies were conducted. The first (Study 1A) was conducted with 3 pre-dose time points (2, 6 and 18 hrs). The second was conducted at 0, 1 and 2 hr predose time points. For both studies, drug was dosed IP or IV.
Using data from the first study, a second study was conducted that was designed to measure dose-response activity of each compound. Compounds were tested at doses of 0, 2.0 and 5 mg/kg using the route and pre-treatment time that produced the best activity. […]
Using data from the first study, a second study was conducted that was designed to measure dose-response activity of each compound. Compounds were tested at doses of 0.5, 2.0 and 5 mg/kg using the route and pre-treatment time that produced the best activity.

[1] = test system: Aspergillus fumigatus-based mouse asthma model; assay: Aspergillus fumigatus-based mouse asthma model, lung resistance; format: in vivo; conditions: intraperitoneally at a dose of 20 mg/ml
Description: Compounds of the invention were also tested for efficiacy in an asthma model.
A cohort of mice were administered intraperitoneal injections of Aspergillus fumigatus on days 0, 14, 26, 27, and 28. Lung resistance was tested on day 29 immediately following a tracheotomy/methacholine procedure. Animals receiving dexamethasone were administered dexamethasone on days 26, 27 and 28. Animals receiving a compound of the invention were administered the compound just hours before the lung resistance test. As a control, all test compounds, as well as dexamethasone, were also administered to mice in the absence of an A. fumigatus insult.

[2] = test system: mice sensitized with collagen injections; assay: Clinical arthritis score in mice sensitized with collagen injections; format: in vivo
Description: FIGS. 26-28 illustrate the effect of various compounds of the invention on the clinical arthritis score of mice treated with various compounds of the invention.
Additional testing of the effectiveness of compounds ICI-685, ICI-735 and ICI-847 at higher and lower concentrations were conducted, as illustrated in FIG. 29.

SMILES	TNFα inhibition, IV versus IP administration (TNF-α)	decreasing lung resistance, compared with dexamethasone [1]	TNFα inhibition in dose-response study (TNF-α)	clinical arthritis score, compared with dexamethasone ([2]; 30 mg/kg)	clinical arthritis score, compared with dexamethasone ([2]; orally at 10 mg/kg daily, for about 21 days)
CN(C)S(=O)(=O)c1ccc2c(c1)N(CCCN1CCN(CCN)CC1)c1ccccc1S2 [ICI-715]	IV administration of ICI-715 produced slightly better inhibition than IV administration				
NCC(=O)NCCN1CCN(CCCN2c3ccccc3Sc3ccc(C(F)(F)F)cc32)CC1 [ICI-735]		at least as effective as dexamethasone			
FC(F)(F)c1ccc2c(c1)N(CCCC1CCNCC1)c1ccccc1S2 [ICI-824]	IP administration produced slightly better inhibition than IV administration		ineffective		
NCCCN1CCC(CCCN2c3ccccc3Sc3ccc(C(F)(F)F)cc32)CC1 [ICI-847]		at least as effective as dexamethasone		as effective for the length of the study as is dexamethasone	as effective as dexamethasone
NCCN1CCN(CCCCN2c3ccccc3Sc3ccc(C(F)(F)F)cc32)CC1 [ICI-953]	IP administration produced slightly better inhibition than IV administration		ineffective		
NCC(=O)NCCN1CCN(CCCCN2c3ccccc3Sc3ccc(C(F)(F)F)cc32)CC1 [ICI-954]	IP administration produced slightly better inhibition than IV administration		ineffective		
